Reference: patent US11744273B2, “Sweetness enhancing volatile compositions and methods of increasing perceived sweetness of a comestible” (University of Florida Research Foundation, Inc., priority 2016, dated 2023)

tested on: flavor intensity; assay: Tomato taste panel; association of compounds with tomato flavor intensity; type: in vivo, human; conditions: not given
Description: (§1) Fully ripe fruit were harvested, and used for taste panels. A random subset of fruit was used for biochemical analysis. Three biological replicates, each consisting of 2-20 fruit (depending on fruit size), were assayed for each variety. […] Panelists were between the ages of 18 and 78 with a median age of 22. […] An average of 85 (range of 66-95) of these panelists evaluated between 4-6 varieties in a session. All panelists went through a training session to familiarize them with the scaling and procedures. Tomatoes were sliced into wedges (or in halves for grape/cherry types) and each panelist was given two pieces for evaluation. Panelists took a bite of each sample, chewed and swallowed it, and rated overall liking and liking for texture. They then rated the perceived intensities of sweetness, sourness, saltiness, umami sensation, bitterness and overall tomato flavor. They were free to take as many bites as necessary to complete the assessments. They were instructed to take a bite of an unsalted cracker and a sip of water between samples. Samples were presented to the panelists in a randomized order. Hedonic ratings used the hedonic gLMS. This scale assesses the liking for tomatoes in the context of all pleasure/displeasure experiences: 0=neutral, −100=strongest disliking of any kind experienced, and +100=strongest liking of any kind experienced. Sensory intensity ratings used the gLMS (7,8,19). This scale assesses taste and flavor sensations in the context of all sensory experience (7): 0=no sensation, 100=strongest sensation of any kind experienced. Both scales were devised to provide valid comparisons across subjects.
(§2) The 68 chemical compounds measured in this experiment were initially divided into six groups based upon biochemical properties: sugars, branched chain amino acids, lipids, carotenoids, phenolics, and acids. A small number of compounds for which biosynthetic pathways are not established were assigned to one of the six classes based upon their correlations with other classified compounds. All pairwise correlations among the set of 68 compounds were calculated. Correlation coefficients were sorted using Modulated Modularity Clustering (MMC) (9) as a visual aid for identifying compounds that are closely related in this sample. Biochemical groups were examined for compounds within the group that were highly correlated and compounds that were upstream in the relevant metabolic pathways were preferentially selected.
(§3) All analyses were performed in SAS v 9.2.
Due to the large number of chemicals potentially influencing liking, a multivariate analysis of the data was performed. The attributes were initially partitioned into six groups based upon chemical properties and biosynthetic pathways: sugars, branched chain amino acids, fatty acids, carotenoids, phenolics, and acids. […] Groups of structurally related chemicals with known metabolic links were examined for compounds within each module that were highly colinear and compounds that were upstream in relevant metabolic pathways were preferentially selected.

| Molecule | association with flavor intensity after accounting for fructose |
| --- | --- |
| C=CC(=O)CCCCC [1-octen-3-one] | significant after accounting for fructose |
| CCC(C)C=O (centres unmarked) [2-methylbuteraldehyde, 2-methylbutanal] | significant after accounting for fructose |
| CC(C)CCO [3-methyl-1-butanol] | significant after accounting for fructose |
| CC/C=C\CCO [cis-3-hexen-1-ol] | significant after accounting for fructose |
| O=C(O)CC(O)(CC(=O)O)C(=O)O [citric acid] | significant after accounting for fructose |
| CCC(C)OC(C)=O (centres unmarked) [sec-butyl acetate] | significant after accounting for fructose |
| CCCCC/C=C/C=C/C=O [trans,trans-2,4-decadienal] | significant after accounting for fructose |

same assay, conditions: univariate models

| Molecule | association with flavor intensity |
| --- | --- |
| C=CC(=O)CCCCC [1-octen-3-one] | associated with flavor intensity |
| CCC(C)C=O (centres unmarked) [2-methylbuteraldehyde, 2-methylbutanal] | associated with flavor intensity |
| CC(C)CCO [3-methyl-1-butanol] | associated with flavor intensity |
| c1ccc2scnc2c1 [benzothiazole] | associated with flavor intensity |
| CCCCOC(C)=O [butyl acetate] | associated with flavor intensity |
| CC/C=C\CCO [cis-3-hexen-1-ol] | associated with flavor intensity |
| O=C(O)CC(O)(CC(=O)O)C(=O)O [citric acid] | associated with flavor intensity |
| O=C(CO)[C@@H](O)[C@H](O)[C@H](O)CO [fructose] | associated with flavor intensity |
| CC(C)=CCC/C(C)=C/C=O [geranial] | associated with flavor intensity |
| CSCCC=O [methional] | associated with flavor intensity |
| CCCCC/C=C/C=C/C=O [trans,trans-2,4-decadienal] | associated with flavor intensity |

tested on: sweetness; assay: Orange juice; partial least squares regression of volatiles against sweetness independent of total sugar (Table 9); type: in vivo, human; conditions: not given
Description: Volatile content of orange juice was assessed and analyzed similar to as described above for tomato, strawberry, and blueberry, described above. The process for obtaining volatile samples from orange juice was slightly different than for tomatoes, strawberries and blueberries. […] Briefly, instead of collecting volatiles at room temperature from a fruit mash in headspace of a closed area, the volatiles were elicited by heating the juice to collect volatiles.

| Molecule | Total Sugar t Ratio |
| --- | --- |
| C=C(C)[C@@H]1CC=C(C)[C@@H](O)C1 (relative stereo) [carveol, trans] | 2.542 |
| C/C=C(C)/C=C/C=C(C)C [E,E-alloocimene] | 3.337 |
| C=C(C)[C@H]1C=C[C@](C)(O)CC1 [E-p-mentha-2,8-dien-1-ol] | 1.258 |
| C=C(C)[C@@H]1CCC2=CCC[C@H](C)[C@@]2(C)C1 [Eremophilene] | 1.738 |

tested on: perceived sweetness intensity; assay: Strawberry consumer panel; revised partial least squares regression against sweetness intensity (Table 6); type: in vivo, human; conditions: in vivo
Description: (§4) All consumer panels were approved by the University of Florida Institutional Review Board. […] Ages of panelist ranged from 18 to 71, with a median age of 24. Panelists self-classified themselves as 98 White or Caucasian, 11 Black or African-American, 1 Native American, Alaska Native or Aleutian, 41 Asian/Pacific Islander, and 15 Other. […] Fresh, fully-ripe strawberry fruit was removed from overnight 4° C. dark storage and allowed to warm to room temperature prior to sensory analysis. Each panelist was given one to two whole strawberries for evaluation, depending on cultivar availability. Panelist took a bite of each sample, chewed, and swallowed it. Ratings for overall liking and liking for texture were scaled on hedonic general labeled magnitude scale (gLMS) in the context of all pleasure/displeasure experiences. […] Scales were employed to mediate valid comparisons across subjects and sessions.
For the second analysis, partial least squares regression analysis was used to identify more correlations to sweetness independent of sugars.

| Molecule | t Ratio (Fructose) | t Ratio (Glucose) | t Ratio (Sucrose) |
| --- | --- | --- | --- |
| CCCCCCCCOC(=O)C(C)CC (centres unmarked) [Octyl 2-methyl butyrate] | 0.015 | −0.099 | 0.357 |

same assay, conditions: strawberry volatile concentration regressed against perceived sweetness intensity independent of fructose; partial least squares regression

| Molecule | t Ratio (Fructose) |
| --- | --- |
| CCCCCC=CC=O [2-Octenal] | −0.171 |
| C=C[C@]1(C)CC[C@H](C(C)(C)O)O1 [(Z)-Linalool oxide] | 1.868 |
| CC1(C)[C@H]2CC=C(C=O)[C@@H]1C2 [Myrtenal] | 2.588 |
| C=C(C)C1CC=C(COC(C)=O)CC1 (centres unmarked) [Perillyl acetate] | 0.231 |
| CCCCCCC1CCC(=O)O1 (centres unmarked) [γ-Decalactone] | 1.246 |
| Methyl thiolacetate | 0.476 |

same assay, conditions: strawberry volatile concentration regressed against perceived sweetness intensity independent of glucose; partial least squares regression

| Molecule | t Ratio (Glucose) |
| --- | --- |
| CCCCCC=CC=O [2-Octenal] | 0.292 |
| C=C[C@]1(C)CC[C@H](C(C)(C)O)O1 [(Z)-Linalool oxide] | 1.561 |
| CC1(C)[C@H]2CC=C(C=O)[C@@H]1C2 [Myrtenal] | 2.455 |
| C=C(C)C1CC=C(COC(C)=O)CC1 (centres unmarked) [Perillyl acetate] | 0.193 |
| CCCCCCC1CCC(=O)O1 (centres unmarked) [γ-Decalactone] | 0.88 |
| Methyl thiolacetate | 0.416 |

same assay, conditions: strawberry volatile concentration regressed against perceived sweetness intensity independent of sucrose; partial least squares regression

| Molecule | t Ratio (Sucrose) |
| --- | --- |
| CCCCCC=CC=O [2-Octenal] | 2.052 |
| C=C[C@]1(C)CC[C@H](C(C)(C)O)O1 [(Z)-Linalool oxide] | 1.954 |
| CC1(C)[C@H]2CC=C(C=O)[C@@H]1C2 [Myrtenal] | −1.323 |
| C=C(C)C1CC=C(COC(C)=O)CC1 (centres unmarked) [Perillyl acetate] | 0.927 |
| CCCCCCC1CCC(=O)O1 (centres unmarked) [γ-Decalactone] | 1.650 |
| Methyl thiolacetate | 1.037 |

tested on: perceived sweetness; assay: Tomato taste panel; initial multiple regression of volatiles against perceived sweetness (Table 3); type: in vivo, human; conditions: tomato
Description: as §1, §2, §3
In conducting the multiple regression analysis on the tomato data set, the independent variables were the sugar content (glucose+fructose), and the flavor (indicated by the retronasal perception of volatiles), while the dependent variable was the perceived sweetness.

| Molecule | association with sweetness after accounting for fructose |
| --- | --- |
| CCC(C)C=O (centres unmarked) [2-methylbuteraldehyde, 2-methylbutanal] | significant after accounting for fructose |
| CC(C)CCO [3-methyl-1-butanol] | significant after accounting for fructose |
| CC(C)=CCC/C(C)=C/C=O [geranial] | significant after accounting for fructose |

same assay, conditions: tomato volatiles; multiple regression, contribution to sweetness independent of the measures of sugar

| Molecule | t |
| --- | --- |
| CCCCC/C=C\CCC=O [cis-4-decenal] | 0.582 |

same assay, conditions: tomato; univariate models

| Molecule | association with sweetness |
| --- | --- |
| CCC(C)C=O (centres unmarked) [2-methylbuteraldehyde, 2-methylbutanal] | showed evidence for association with sweetness |
| CC(C)CCO [3-methyl-1-butanol] | showed evidence for association with sweetness |
| CC1C=CC2C(C1)C2(C)C (centres unmarked) [4-carene] | showed evidence for association with sweetness |
| CCCCOC(C)=O [butyl acetate] | showed evidence for association with sweetness |
| CC/C=C\CCO [cis-3-hexen-1-ol] | showed evidence for association with sweetness |
| C=CCc1ccc(O)c(OC)c1 [eugenol] | showed evidence for association with sweetness |
| O=C(CO)[C@@H](O)[C@H](O)[C@H](O)CO [fructose] | showed evidence for association with sweetness |
| CC(C)=CCC/C(C)=C/C=O [geranial] | showed evidence for association with sweetness |
| COc1ccccc1O [guaiacol] | showed evidence for association with sweetness |
| CCCCCCC=O [heptaldehyde] | showed evidence for association with sweetness |
| CSCCC=O [methional] | showed evidence for association with sweetness |
| O=CCc1ccccc1 [phenylacetaldehyde] | showed evidence for association with sweetness |

tested on: perceived sweetness intensity; assay: Strawberry consumer panel; initial multiple regression of volatiles against perceived sweetness intensity independent of glucose, fructose or sucrose (Table 5); type: in vivo, human; conditions: initial step-wise multiple regression
Description: Step-wise multiple regressions of all volatile compounds against perceived intensity of sweetness is performed independent of either glucose, fructose, or sucrose concentration, separately (Table 5).
At least 100 grams or seven berries of each sample were removed from 4° C. dark overnight storage prior to volatile collection. Samples were homogenized in a blender prior to splitting into three 15 gram replicates for immediate capturing of volatile emission and remainder of sample frozen in N2 (I) and stored at −80° C. for later sugar and acid quantification.
Oven temperatures programmed from 40° C. (0.5 min hold) at 5° C. min^−1 to 250° C. (4 min hold). Signals captured with a flame ionization detector (FID) at 280° C. Peaks from FID signal were integrated manually with Chemstation B.04.01 software (Agilent Technologies, Santa Clara, Calif.). Volatile emission (ng gFW^−1 h^−1) calculated based on individual peak area relative to sample elution standard peak area.
as §4
For the first analysis, individual volatile compound concentrations were regressed using the “enter” method in SPSS Statistics (IBM Corp, Armonk, N.Y., USA).

| Molecule | relation to sweetness intensity independent of sugars |
| --- | --- |
| CCCC(=O)OC(C)CCC (centres unmarked) [60415-61-4, 2-pentanyl butyrate] | enhance sweetness intensity |
| CCCCCCOC(C)=O [hexyl acetate] | enhance sweetness intensity |
| CC(=O)OCC=C(C)C [prenyl acetate, 3-methyl-2-buten-1-yl acetate] | negatively related to sweetness |

same assay, conditions: standard least squares, sweetness intensity independent of fructose

| Molecule | FRUCTOSE t RATIO |
| --- | --- |
| CCCCCCCCOC(=O)CC(C)C [7786-58-5] | 0.362 |
| CCCCCCCCCOC(=O)C(C)C [10522-34-6] | 0.536 |
| C=C(C)C1CC=C(COC(C)=O)CC1 (centres unmarked) [15111-96-3] | 0.23 |
| CCCCC/C=C\C=O [20664-46-4] | −0.17 |
| CCC(O)C(=O)OC (centres unmarked) [29674-47-3] | 1.339 |
| CCCCCCCCOC(=O)C(C)CC (centres unmarked) [29811-50-5] | 0.016 |
| C=CC(C)(O)CC/C=C(\C)CCC=C(C)C (centres unmarked) [40716-66-3] | 1.521 |
| CC=C(C)C(=O)OCC [55514-48-2] | −0.644 |

same assay, conditions: standard least squares, sweetness intensity independent of glucose

| Molecule | GLUCOSE t RATIO |
| --- | --- |
| CCCCCCCCOC(=O)CC(C)C [7786-58-5] | 0.227 |
| CCCCCCCCCOC(=O)C(C)C [10522-34-6] | 0.288 |
| C=C(C)C1CC=C(COC(C)=O)CC1 (centres unmarked) [15111-96-3] | 0.192 |
| CCCCC/C=C\C=O [20664-46-4] | −0.395 |
| CCC(O)C(=O)OC (centres unmarked) [29674-47-3] | 1.362 |
| CCCCCCCCOC(=O)C(C)CC (centres unmarked) [29811-50-5] | −0.098 |
| C=CC(C)(O)CC/C=C(\C)CCC=C(C)C (centres unmarked) [40716-66-3] | 1.202 |
| CC=C(C)C(=O)OCC [55514-48-2] | −0.675 |

same assay, conditions: standard least squares, sweetness intensity independent of sucrose

| Molecule | SUCROSE t RATIO |
| --- | --- |
| CCCCCCCCOC(=O)CC(C)C [7786-58-5] | 2.027 |
| CCCCCCCCCOC(=O)C(C)C [10522-34-6] | 2.049 |
| C=C(C)C1CC=C(COC(C)=O)CC1 (centres unmarked) [15111-96-3] | 0.927 |
| CCCCC/C=C\C=O [20664-46-4] | 1.383 |
| CCC(O)C(=O)OC (centres unmarked) [29674-47-3] | 0.035 |
| CCCCCCCCOC(=O)C(C)CC (centres unmarked) [29811-50-5] | 0.358 |
| C=CC(C)(O)CC/C=C(\C)CCC=C(C)C (centres unmarked) [40716-66-3] | 1 |
| CC=C(C)C(=O)OCC [55514-48-2] | −0.889 |
